Measured values reported in patent publication WO2007139036A1, “Compound for controlling endoplasmic reticulum stress, and pharmaceutical composition comprising the compound as active ingredient” (Meiji Dairies Corp, priority 2006, dated 2007).

What was measured:
[1] = Patent Document 1 (JP 2005-247728); cited from earlier work
[2] = system: MIN6 cells; assay: Secondary screening: oxidative stress (H2O2)-derived cell death suppression, MIN6 cells; format: cell-based, mouse; set-up: key to oxidative stress-derived cell death inhibitory effect (class symbol): 一: 細胞死抑制効果無し; +: その中間程度の抑制効果を有する; ++: ダントロ レンの細胞死抑制効果と同程度; details: H2O2 66 μM, 24 h; for oxidative stress-derived cell death inhibitory effect, compared with N-acetylcysteine (NAC): NAC 1000 μM
[3] = other models; cited from earlier work
[4] = system: MIN6 cells; assay: Intracellular protein synthesis by metabolic labeling (35S-Met), MIN6 cells; format: cell-based, mouse; details: incubated for more than 24 hours
[5] = system: heme-oxygenase 1 (HO-1); assay: HO-1 expression by Northern blot, MIN6 cells; format: cell-based, mouse
[6] = system: CHOP; assay: CHOP expression by Northern blot, MIN6 cells; format: cell-based, mouse
[7] = system: XBP1; assay: XBP1 activation by RT-PCR, MIN6 cells; format: cell-based, mouse
[8] = system: GRP78; assay: GRP78 expression by Northern blot, MIN6 cells; format: cell-based, mouse
[9] = system: kidney (proximal) tubule cells; assay: Third screening: mouse endoplasmic reticulum stress model (tunicamycin), kidney tubules, HE and TUNEL; format: in vivo; details: 10 mg/kg/day intraperitoneal daily for 4 days before tunicamycin 1 mg/kg
[10] = system: rat Parkinson disease model; details: cited from earlier work
[11] = pre-administration from 24 h before H2O2 and simultaneous administration

SMILES: CCCCCC=CCC=CCCCCCCCC(=O)OCC(COP(=O)(O)OCCN)OC(=O)CCCCCCCC=CCC=CCCCCC (stereo not drawn) [ジリノレオイルホスファチジルエタノールァミン, dilinoleoylphosphatidylethanolamine]
- cell death induction suppressing activity [1]: 細胞死誘導抑制活性
- endoplasmic reticulum stress suppressing activity [1]: 小胞体ストレス抑制活性

SMILES: COc1ccc(-c2cc(=O)c3c(OC)c(OC)c(OC)c(OC)c3o2)cc1OC [IN69, nobiletin]
- oxidative stress-derived cell death inhibitory effect (class symbol) [2, 11]: 士
- neuroprotective activity [3]: neuroprotective

SMILES: O=c1cc(-c2ccccc2)oc2ccccc12 [flavone]
- oxidative stress-derived cell death inhibitory effect, compared with N-acetylcysteine (NAC) [2]: 効果はやや小さかった
- oxidative stress-derived cell death inhibitory effect, compared with α-tocopherol and β-carotene [2, 11]: 同程度の効果が認められた

SMILES: COc1ccc(-c2cc(=O)c3c(OC)c(OC)c(OC)c(OC)c3o2)cc1 [IN19, tangeretin]
- oxidative stress-derived cell death inhibitory effect, compared with N-acetylcysteine (NAC) [2]: 効果はやや小さかった
- oxidative stress-derived cell death inhibitory effect, compared with α-tocopherol and β-carotene [2, 11]: 同程度の効果が認められた
- intracellular protein synthesis (decreased to) [4]: about 60%
- expression of heme-oxygenase 1 (HO-1) [5]: also increased
- expression of CHOP [6]: also increased
- activation of XBP1 [7]: involves administration of IN19
- expression of GRP78 [8]: at least not increased
- tissue damage in renal tubules ([9]; kidney on day 4 after tunicamycin): ほぼ完全に抑制された
- cell death in renal tubules ([9]; kidney on day 4 after tunicamycin (TUNEL)): ほぼ完全に抑制された
- neuroprotective activity [10]: neuroprotective

SMILES: COc1ccc(-c2cc(=O)c3c(OC)c(OC)c(OC)cc3o2)cc1OC [IN88, sinensetin]
- oxidative stress-derived cell death inhibitory effect, compared with N-acetylcysteine (NAC) [2]: 効果はやや小さかった
- oxidative stress-derived cell death inhibitory effect, compared with α-tocopherol and β-carotene [2, 11]: 同程度の効果が認められた
